In patent US5324648A, “Substituted isocoumarins as serine protease inhibitors and anti-inflammatory agents” (Georgia Tech Research Corporation, priority 1992, dated 1994):
Read-outs that look alike come from different tables or passages of the source.

Legend:
human factor XIa = target: T1, human factor XIa (Homo sapiens, UniProt P03951); experiment: Inactivation rate of human factor XIa; type: biochemical; settings: Table VIII; pH 7.5, 25° C; [I] 0.7-0.8 μM; read-out: kobs/[I]
T1 construct: human factor XIa
T1 sequence (P03951 388-625 limits assumed): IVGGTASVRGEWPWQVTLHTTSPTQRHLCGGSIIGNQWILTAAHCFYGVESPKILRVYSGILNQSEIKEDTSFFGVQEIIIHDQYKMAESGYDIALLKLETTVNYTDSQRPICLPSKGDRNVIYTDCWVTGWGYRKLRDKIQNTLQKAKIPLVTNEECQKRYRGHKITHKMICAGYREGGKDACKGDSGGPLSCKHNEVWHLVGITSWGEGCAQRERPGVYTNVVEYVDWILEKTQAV
T1 sequence (P03951 19-387 partner limits assumed): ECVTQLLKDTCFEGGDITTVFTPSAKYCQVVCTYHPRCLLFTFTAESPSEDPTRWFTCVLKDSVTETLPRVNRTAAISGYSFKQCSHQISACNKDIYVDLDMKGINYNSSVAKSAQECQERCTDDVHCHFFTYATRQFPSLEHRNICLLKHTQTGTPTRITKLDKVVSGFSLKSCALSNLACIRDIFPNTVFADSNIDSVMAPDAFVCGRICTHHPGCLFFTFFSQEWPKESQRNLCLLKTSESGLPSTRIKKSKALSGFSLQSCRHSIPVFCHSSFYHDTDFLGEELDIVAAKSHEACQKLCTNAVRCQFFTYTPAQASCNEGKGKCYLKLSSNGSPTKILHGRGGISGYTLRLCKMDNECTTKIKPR
Description: (§1) Inactivation rates of serine proteases by substituted isocoumarins were measured by the incubation method. An aliquot of inhibitor (25 or 50 μl) in Me2 SO was added to a buffered enzyme solution (0.01-2.3 μM) to initiate the inactivation. Aliquots (50 μl) were withdrawn at various intervals and the residual enzymatic activity was measured. Me2 SO concentration in the reaction mixture was 8-12% (v/v). 0.1 Hepes, 0.01M CaCl2, pH 7.5 buffer was utilized for trypsin and coagulation enzymes. 0.1M Hepes, 0.5M NaCl, pH 7.5 was utilized for other serine proteases. The inhibitor concentrations are shown in all the tables. Peptide thioesters or peptide nitroanilides with appropriate sequence were used as substrates for various serine proteases. All peptide thioester hydrolysis rates were measured with assay mixtures containing 4,4'-dithiodipyridine (ε324 =19800M^-1 cm^-1; Grasetti & Murray, Arch. Biochem. Biophys. 119, pp 41-49 (1967)). Peptide 4-nitroanilide nitroanilide hydrolysis was measured at 410 nm (ε410 =8800M^-1 cm^-1; Erlanger et al., Arch. Biochem. Biophys. 95, pp 271-278 (1961)). First order inactivation rate constant (kobs) were obtained from plots of ln (vt /vo) vs time, and the correlation coefficients were greater than 0.98.
(§2) ^a Conditions were as 0.1M Hepes, 0.01M CaCl2, pH 7.5 and 8-12%
(§3) Me2 SO and 25° C. Rate constants were measured by incubation
(§4) method unless otherwise noted. An aliquot of inhibitor was added to an
(§5) enzyme solution and aliquots removed with time and assayed for remaining
(§6) enzymatic activity. Firstorder rate constants, kobs were obtained
(§7) from the plots of ln(vt /vo) versus time.
(§8) ^a Inhibition rates were measured in 0.1M Hepes, 0.01M CaCl2, pH
(§9) 7.5 buffer, 8% Me2 SO and at 25° C.

human factor XIIa = target: T2, human factor XIIa (Homo sapiens, UniProt P00748); experiment: Inactivation rate of human factor XIIa; type: biochemical; settings: Table VIII; pH 7.5, 25° C; [I] 3.6-4.9 μM; read-out: kobs/[I]
T2 construct: human factor XIIa
T2 sequence (P00748 373-615 limits assumed): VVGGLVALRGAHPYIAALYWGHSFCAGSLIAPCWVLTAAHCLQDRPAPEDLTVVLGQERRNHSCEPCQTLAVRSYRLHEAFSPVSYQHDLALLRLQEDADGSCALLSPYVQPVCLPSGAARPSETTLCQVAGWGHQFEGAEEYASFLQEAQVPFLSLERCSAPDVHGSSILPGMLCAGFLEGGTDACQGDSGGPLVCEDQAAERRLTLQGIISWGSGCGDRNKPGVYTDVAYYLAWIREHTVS
T2 sequence (P00748 20-372 partner limits assumed): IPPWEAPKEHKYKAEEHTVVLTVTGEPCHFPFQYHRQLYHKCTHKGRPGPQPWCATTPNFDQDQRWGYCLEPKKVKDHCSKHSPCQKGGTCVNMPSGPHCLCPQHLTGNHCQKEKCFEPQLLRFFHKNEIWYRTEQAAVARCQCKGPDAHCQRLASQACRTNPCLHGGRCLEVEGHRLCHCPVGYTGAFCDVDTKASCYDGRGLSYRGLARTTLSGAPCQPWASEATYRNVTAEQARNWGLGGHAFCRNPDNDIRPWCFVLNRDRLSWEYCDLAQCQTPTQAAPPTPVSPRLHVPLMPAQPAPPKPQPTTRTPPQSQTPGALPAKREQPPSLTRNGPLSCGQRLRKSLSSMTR
Description: as §1, §2, §3, §4, §5, §6, §7, §8, §9

bovine thrombin = target: T3, bovine thrombin (Bos taurus, UniProt P00735); experiment: Inactivation rate of bovine thrombin; type: biochemical; settings: Table VIII; pH 7.5, 25° C; [I] 1.2-54 μM; read-out: kobs/[I]
T3 construct: bovine thrombin
Summary of the method: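 Incubating enzyme with inhibitor in Ca2+-containing Hepes, pH 7.5, 8-12% Me2SO, 25° C, then sampling over time, gave residual activity measured spectrophotometrically with thioester or nitroanilide substrates; kobs was taken from ln(vt/vo) plots.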

human thrombin = target: T4, human thrombin (Homo sapiens, UniProt P00734); experiment: Inactivation rate of human thrombin; type: biochemical; settings: Table VIII; pH 7.5, 25° C; [I] 1.2-54 μM; read-out: kobs/[I]
T4 construct: human thrombin
Summary of the method: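 Incubation method: enzyme (0.01-2.3 μM) mixed with inhibitor in 0.1M Hepes, 0.01M CaCl2, pH 7.5, 8% Me2SO, 25° C; residual activity sampled over time with peptide thioester or 4-nitroanilide substrates. kobs from ln(vt/vo) vs time plots.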

pig plasma [1] = experiment: Activated partial thromboplastin time (APTT), pig plasma; settings: [I] 32 μM
human factor Xa = target: T5, human factor Xa (Homo sapiens, UniProt P00742); experiment: Inactivation rate of human factor Xa; type: biochemical; settings: Table VIII; pH 7.5, 25° C; [I] 3.6-44 μM; read-out: kobs/[I]
T5 construct: human factor Xa
T5 sequence (P00742 235-488 limits assumed): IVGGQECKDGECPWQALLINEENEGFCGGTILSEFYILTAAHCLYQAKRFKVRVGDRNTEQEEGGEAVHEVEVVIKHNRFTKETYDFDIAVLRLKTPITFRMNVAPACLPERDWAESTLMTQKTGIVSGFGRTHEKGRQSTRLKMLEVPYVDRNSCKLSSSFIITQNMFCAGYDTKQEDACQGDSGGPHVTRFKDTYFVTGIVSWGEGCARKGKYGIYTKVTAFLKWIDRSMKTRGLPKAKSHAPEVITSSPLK
T5 sequence (P00742 41-179 partner limits assumed): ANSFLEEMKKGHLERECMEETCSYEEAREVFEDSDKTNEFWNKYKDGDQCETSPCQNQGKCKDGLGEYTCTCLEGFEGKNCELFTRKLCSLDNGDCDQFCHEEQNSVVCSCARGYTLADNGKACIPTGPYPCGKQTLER
Description: as §1, §2, §3, §4, §5, §6, §7, §8, §9

pig plasma [2] = experiment: Prothrombin time (PT), pig plasma; settings: [I] 32 μM
human lung tryptase = experiment: Inactivation rate of human lung tryptase; type: biochemical; settings: Table IX; pH 7.5, 25° C; [I] 0.42-0.47 μM
Description: as §1
^a Inactivation rates were measured at 0.1M Hepes, 0.5M NaCl, pH 7.5
buffer, 8% Me2 SO and 25° C.
as §8
(§10) 7.5 buffer for human plasmin; 25 mM Phosphate, 0.5M NaCl, 1 mM EDTA, pH
(§11) 7.5 buffer for rat skin tryptase and 0.1M Hepes, 0.5M NaCl, pH 7.5 for
(§12) human lung tryptase, human skin tryptase and rt-PA. All enzymes were
(§13) assayed with ZArg-SBzl (0.07 mM) in the presence of 4,4dithiodipyridine
(§14) (0.33 mM). Reaction mixtures contained 8% Me2 SO and assays were […]

[3] = target: recombinant human tissue plasminogen activator (Homo sapiens, UniProt P00750); experiment: Inactivation rate of recombinant human tissue plasminogen activator; type: biochemical; settings: pH 7.5, Table IX; pH 7.5, 25° C; [I] 3.5-5.0 μM; read-out: kobs/[I]
Sequence of recombinant human tissue plasminogen activator (P00750 36-562): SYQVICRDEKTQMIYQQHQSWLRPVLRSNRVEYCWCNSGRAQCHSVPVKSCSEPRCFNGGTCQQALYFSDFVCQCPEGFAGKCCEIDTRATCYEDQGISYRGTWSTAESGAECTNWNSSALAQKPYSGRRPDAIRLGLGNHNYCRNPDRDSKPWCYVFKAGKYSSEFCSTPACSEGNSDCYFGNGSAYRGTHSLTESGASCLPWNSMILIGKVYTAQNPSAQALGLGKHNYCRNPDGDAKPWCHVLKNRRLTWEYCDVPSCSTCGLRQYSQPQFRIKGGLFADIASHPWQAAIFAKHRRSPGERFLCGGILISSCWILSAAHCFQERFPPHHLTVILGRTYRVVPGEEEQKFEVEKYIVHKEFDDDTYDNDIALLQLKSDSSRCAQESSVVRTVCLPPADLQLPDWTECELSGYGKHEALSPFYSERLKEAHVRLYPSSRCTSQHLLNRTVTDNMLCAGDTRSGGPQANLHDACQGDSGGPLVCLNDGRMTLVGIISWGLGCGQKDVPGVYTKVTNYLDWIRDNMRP
Description: as §1
^a Inactivation constants were measured at 0.1M Hepes, 0.5M NaCl (or
as §8, §10, §11, §12, §13, §14

rat skin tryptase = target: T6, rat skin tryptase (Rattus norvegicus, UniProt P27435); experiment: Inactivation rate of rat skin tryptase; type: biochemical; settings: pH 7.5, Table IX; pH 7.5, 25° C; [I] 0.42-0.51 μM; read-out: kobs/[I]
T6 construct: from tissue; host or cells: rat skin
T6 sequence (P27435 29-273): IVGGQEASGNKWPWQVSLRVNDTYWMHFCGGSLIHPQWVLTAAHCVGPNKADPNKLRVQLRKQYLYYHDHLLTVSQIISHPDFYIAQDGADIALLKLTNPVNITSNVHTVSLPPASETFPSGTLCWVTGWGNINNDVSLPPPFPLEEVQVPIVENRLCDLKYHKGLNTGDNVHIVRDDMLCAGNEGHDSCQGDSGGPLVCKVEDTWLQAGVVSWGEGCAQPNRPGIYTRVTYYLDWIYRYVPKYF
Description: as §1
^b Inactivation rates were measured at 25 mM phosphate, 0.5M NaCl, 1
mM EDTA, pH 7.5 buffer, 9% Me2 SO and 25° C.
as §8, §10, §11, §12, §13, §14

[4] = target: T7, porcine pancreatic elastase (PPE) (Sus scrofa, UniProt P00772); experiment: Inactivation of porcine pancreatic elastase (PPE); type: biochemical; settings: Table X; after 20 min incubation
T7 construct: from tissue; host or cells: porcine pancreas (from the name)
T7 sequence (P00772 27-266): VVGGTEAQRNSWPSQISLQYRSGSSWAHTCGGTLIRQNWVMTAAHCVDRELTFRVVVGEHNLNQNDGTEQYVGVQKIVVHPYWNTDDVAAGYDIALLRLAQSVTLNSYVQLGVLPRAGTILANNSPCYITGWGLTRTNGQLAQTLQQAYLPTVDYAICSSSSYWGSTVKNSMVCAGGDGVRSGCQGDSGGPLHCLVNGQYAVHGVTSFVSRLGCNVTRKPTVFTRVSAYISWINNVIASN

chymotrypsin = chymotrypsin (Bos taurus, UniProt P00766); experiment: Inactivation of chymotrypsin; type: biochemical, bovine; settings: Table X; pH 7.5, 25° C; [I] 0.9-43 μM; read-out: kobs/[I]
cathepsin G = target: T8, cathepsin G (Homo sapiens, UniProt P08311); experiment: Inactivation of cathepsin G; type: biochemical; settings: Table X; pH 7.5, 25° C; [I] 33-46 μM; read-out: kobs/[I]
T8 construct: from tissue; host or cells: human leukocytes
T8 sequence (P08311 21-255): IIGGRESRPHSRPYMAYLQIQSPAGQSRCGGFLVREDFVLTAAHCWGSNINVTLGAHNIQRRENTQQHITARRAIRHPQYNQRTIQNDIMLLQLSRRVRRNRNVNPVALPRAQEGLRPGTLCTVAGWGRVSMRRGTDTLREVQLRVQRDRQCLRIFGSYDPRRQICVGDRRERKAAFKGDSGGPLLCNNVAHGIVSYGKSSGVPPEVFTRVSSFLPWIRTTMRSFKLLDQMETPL

[5] = target: T9, human leukocyte elastase (HLE) (Homo sapiens, UniProt P08246); experiment: Inactivation of human leukocyte elastase (HLE); type: biochemical; settings: pH 7.5, Table X, biphasic inhibition
T9 construct: from tissue; host or cells: human leukocytes (from the name)
T9 sequence (P08246 30-267): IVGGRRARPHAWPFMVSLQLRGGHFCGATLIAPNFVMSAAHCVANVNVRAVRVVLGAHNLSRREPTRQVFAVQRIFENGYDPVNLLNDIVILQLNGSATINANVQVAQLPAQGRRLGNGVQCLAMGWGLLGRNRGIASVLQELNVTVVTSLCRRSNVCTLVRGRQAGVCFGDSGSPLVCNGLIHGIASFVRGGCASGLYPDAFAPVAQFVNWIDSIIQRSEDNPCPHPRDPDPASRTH

human plasmin = target: T10, human plasmin (Homo sapiens, UniProt P00747); experiment: Inactivation rate of human plasmin; type: biochemical; settings: Table IX; 0.01M CaCl2, pH 7.5, 25° C; [I] 8.3-41 μM; read-out: kobs/[I]
T10 construct: human plasmin; from tissue; host or cells: human plasma
T10 sequence (P00747 581-810 limits assumed): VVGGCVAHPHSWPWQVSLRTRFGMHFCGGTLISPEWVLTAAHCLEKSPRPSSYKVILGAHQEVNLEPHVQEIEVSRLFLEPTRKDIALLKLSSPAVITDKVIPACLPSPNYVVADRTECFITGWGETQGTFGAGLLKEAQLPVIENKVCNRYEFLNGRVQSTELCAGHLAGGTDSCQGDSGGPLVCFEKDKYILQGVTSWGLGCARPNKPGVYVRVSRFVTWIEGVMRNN
T10 sequence (P00747 97-580 partner limits assumed): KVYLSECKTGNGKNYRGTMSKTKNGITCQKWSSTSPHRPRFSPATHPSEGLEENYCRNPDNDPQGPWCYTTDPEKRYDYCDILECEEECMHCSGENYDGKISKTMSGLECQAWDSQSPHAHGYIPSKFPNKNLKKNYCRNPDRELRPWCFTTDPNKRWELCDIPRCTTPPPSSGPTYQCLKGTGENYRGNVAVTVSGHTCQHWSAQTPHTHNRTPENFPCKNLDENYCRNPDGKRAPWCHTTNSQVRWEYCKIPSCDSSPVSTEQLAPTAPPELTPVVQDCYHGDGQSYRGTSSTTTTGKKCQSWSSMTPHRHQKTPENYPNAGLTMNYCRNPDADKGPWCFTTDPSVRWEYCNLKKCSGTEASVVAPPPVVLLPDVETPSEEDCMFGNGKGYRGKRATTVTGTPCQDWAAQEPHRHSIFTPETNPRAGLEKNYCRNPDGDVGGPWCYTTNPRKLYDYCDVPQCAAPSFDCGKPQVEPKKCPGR

Compound	kinact/KI (human factor XIa)	kinact/KI (human factor XIIa)	kinact/KI (bovine thrombin)	kinact/KI (human thrombin)	APTT (pig plasma [1])	kinact/KI (human factor Xa)	PT (pig plasma [2])	kobs/[I] (human lung tryptase)	kinact/KI [3]	kinact/KI (rat skin tryptase)	percentage of inhibition [4]	kinact/KI (chymotrypsin)	kinact/KI (cathepsin G)	kinact/KI ([5]; read-out: kobs/[I] (biphasic, first value))	kinact/KI ([5]; read-out: kobs/[I] (biphasic, second value))	kinact/KI (human plasmin)
N=C(N)SCCOc1oc(=O)c2cc(NC(=O)NCc3ccccc3)ccc2c1Cl [PhCH2 NHCONH-CiTEtOIC, 7-(benzylcarbamoylamino)-4-chloro-3-(2-isothiureidoethoxy)isocoumarin]	105000 M⁻¹ s⁻¹	45000 M⁻¹ s⁻¹	16800 M⁻¹ s⁻¹	11700 M⁻¹ s⁻¹	> 120 s	2340 M⁻¹ s⁻¹	31.1 s	280,000 M^-1 s^-1	19000 M⁻¹ s⁻¹	200000 M⁻¹ s⁻¹	–	–	–	–	–	–
C[C@H](NC(=O)Nc1ccc2c(Cl)c(OCCSC(=N)N)oc(=O)c2c1)c1ccccc1 [S-C6 H5 (CH3)CHNHCONH-CiTEtOIC, 7-((S)-α-methylbenzylcarbamoylamino)-4-chloro-3-(2-isothiureidoethoxy)isocoumarin]	–	–	41300 M⁻¹ s⁻¹	21000 M⁻¹ s⁻¹	> 120 s	–	30.0 s	–	–	–	21%	260 M⁻¹ s⁻¹	35 M⁻¹ s⁻¹	5100 M⁻¹ s⁻¹	360 M⁻¹ s⁻¹	27800 M⁻¹ s⁻¹
